pIC50: −log10 of the molar value.
Biological target: T1, NK-3 receptor (Homo sapiens, UniProt P29371)
T1 construct: expressed in transfected cells; total cellular membranes used
T1 sequence (P29371 1-465): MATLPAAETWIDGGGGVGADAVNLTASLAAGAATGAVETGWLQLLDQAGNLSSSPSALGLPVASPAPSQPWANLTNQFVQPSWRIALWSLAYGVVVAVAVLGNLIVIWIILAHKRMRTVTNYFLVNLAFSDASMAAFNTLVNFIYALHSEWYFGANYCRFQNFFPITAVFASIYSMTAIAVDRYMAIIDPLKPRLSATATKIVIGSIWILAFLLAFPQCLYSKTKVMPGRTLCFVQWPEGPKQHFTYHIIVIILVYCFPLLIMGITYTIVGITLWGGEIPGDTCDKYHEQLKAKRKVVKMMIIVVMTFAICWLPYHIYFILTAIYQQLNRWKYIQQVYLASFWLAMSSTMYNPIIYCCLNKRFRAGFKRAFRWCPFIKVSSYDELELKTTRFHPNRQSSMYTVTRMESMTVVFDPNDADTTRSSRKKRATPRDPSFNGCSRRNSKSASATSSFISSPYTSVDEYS
Assay: NK3 receptor binding assay (displacement of 125I-methylPhe7-neurokinin B)
Conditions: membranes of Chinese hamster ovary cells expressing cloned human NK-3 receptor; 0.15 nM 125I-methylPhe7-neurokinin B; 2 hours at 4° C.
Protocol: The following assay is a standard assay of NK3 receptor binding, which is used to determine the NK-3 receptor binding affinity of compounds.
Assays are performed as described in Krause et al (Proc. Natl. Acad. Sci. USA 94: 310–315, 1997). The NK-3 receptor complementary DNA was cloned from human hypothalamic RNA using standard procedures. The receptor cDNA was inserted into the expression vector pM^2 to transfect the mammalian Chinese hamster ovary cell line, and a stably expressing clonal cell line was isolated, characterized and used for the current experiments. Cells are grown in minimal essential medium alpha containing 10% fetal bovine serum and 0.8 mg G418 per ml. Cells were liberated from cell culture plates with No-zyme (PBS base, JRH Biosciences), and harvested by low speed centrifugation. The cell pellet was homogenized in TBS (0.05 m TrisHCl, 120 mM NaCl, pH 7.4) with a Polytron homogenizer at setting 5 for 20 seconds, and total cellular membranes were isolated by centrifugation at 47,500×g for 10 minutes. The membrane pellet was resuspended by homogenization with the Polytron as above, and the membranes were isolated by centrifugation at 47,500×g for 10 minutes. This final membrane pellet was resuspended in TBS at a protein concentration of 350 μg/ml.
Receptor binding assays contain a total volume of 200 μl containing 50 μg membrane protein, 0.15 nM ^125I-methylPhe^7-neurokinin B, drug or blocker in TBS containing 1.0 mg/ml bovine serum albumen, 0.2 mg/ml bacitracin, 20 ug/ml leupeptin and 20 μg/ml chymostatin. Incubations are carried out for 2 hours at 4° C., and the membrane proteins are harvested by passing the incubation mixture by rapid filtration over presoaked GF/B filters to separate bound from free ligand. […] After filtration of the incubation mixture, filters are rinsed 4 times with ice-cold TBS containing 0.01% sodium dodecyl sulfate and counted in a β-plate scintillation counter. […] Data are collected in duplicate determinations, averaged, and the percent inhibition of total specific binding is calculated. […]

pIC50 | Compound
7.30 | CC[C@H](NC(=O)c1cc(-c2ccccc2)nc2ccncc12)c1ccccc1 [Compound 1]
7.10 | CC[C@H](NC(=O)c1cc(-c2ccccc2)nc2ccsc12)c1ccccc1 [Compound 2]
7.00 | CC[C@H](NC(=O)c1cc(-c2ccccc2)nc2ncccc12)c1ccccc1 [Compound 3]

Source: patent US7037922B1, “Aryl fused 2,4-disubstituted pyridines: NK3 receptor ligands” (Neurogen Corporation, priority 2000, dated 2006)
